How the values were obtained:
[1] = molecular target: T1, human matrix metalloproteinase-9 (MMP-9; gelatinase B) (Homo sapiens, UniProt P14780); assay: Inhibition of human matrix metalloproteinase-9 (gelatinase B); assay type: biochemical; details: trypsin-activated native MMP-9 from human buffy coat; for IC50: read-out: MMP-9 (50% inhibition)
T1 construct: from tissue; host or cells: human buffy coat (blood leukocytes)
Procedure: Native MMP-9 was reproducibly obtained with reasonable yield and purity from human buffy coat. Buffy coat, to which was added an appropriate volume of 10% (v/v) Triton-X-100 to obtain a final concentration of 0,4% detergent, was shaken on ice for 30 min; then, one volume of twofold-concentrated binding buffer (40 mM Tris-HCl pH 7,5, 10 mM CaCl2, 1 M NaCl, 0,2% (v/v) Triton X-100 was added and the mixture shaken on ice for a further 30 min.
The mixture was then centrifuged for 15 min at 16,000 rpm (30,590×g) in a Kendro SS-34 rotor at 4° C. and the resulting supernatant filtered over glass wool. The filtrate was incubated batchwise with gelatin-agarose equilibrated in binding buffer for 1 h on ice with continuous shaking The MMP-9-bound gelatin-agarose was then loaded into a chromatographic tube and the column washed with at least ten bed volumes of binding buffer, or until no protein was detected by absorbance at 280 nm in the wash buffer. MMP-9 was eluted from the gelatin affinity column by application of two bed volumes of binding buffer containing 5% (v/v) dimethylsulfoxide (DMSO).
The eluate was applied to a gel filtration column of Sephadex G-75 both to exchange buffer and to eliminate small amounts of contaminating MMP-2. The G-75 column was prepared and eluted with Buffer I [20 mM Tris-HCl pH 7,5, 5 mM CaCl2, 100 mM NaCl, 0,1% (v/v) Triton X-100].
The eluted MMP-9 includes the three characterized forms of the enzyme: monomer, homodimer, and heterodimer (complex with lipokalin). The purity of MMP-9 was estimated to be ca. 90%, with the remaining contaminating protein being fibronectin and small amounts of TIMPS.
The latent MMP-9 was activated by a 30-60 min incubation at 37° C. with 1/100 vol trypsin (10 mg ml^−1). The trypsin was subsequently inactivated by addition of the serine proteinase inhibitor phenlymethylsulfonylfluoride (PMSF) or the more specific trypsin inhibitor TLCK.
The enzymatic cleavage of commercially available synthetic internally quenched fluorigenic peptide substrates such as 7-methylcoumarin-4-yl-acetyl-prolyleucyl-glycyl-leucyl-(dinitrophenyl-L-α,β-diaminopropionyl)-alanyl-arginylamide (Mca-Pro-Leu-Gly-Leu-Dap(Dnp)-Ala-Arg-NH2) at the scissile -Gly-Leu-peptide bond separates the fluorescent Mca group from the dinitrophenol quencher, resulting in a strong linear increase in fluorescence intensity that can be readily measured in a fluorimeter (λexitation328 nm, λemission 393 nm) over the first few minutes of the reaction. The specificity of the assay for matrix metalloproteinases is provided by the type I collagen-derived sequence -Pro-Leu-Gly-Leu- in the synthetic substrate, as well as by the incubation conditions. To test the efficacy of the synthetic collagenase/MMP inhibitors, the residual enzymatic activity remaining after an incubation of enzyme plus different amounts of inhibitor is measured at a fixed enzyme and substrate concentration. For each inhibitor, three test series at different fixed substrate concentrations were carried out. From the time-dependent increase in fluorescence intensity measured, the velocity (v) of the enzymatic activity can be calculated as increase in arbitrary fluorescence intensity units per minute. The inhibition constant Ki is calculated graphically by the method of Dixon (1953) by plotting the reciprocal of the reaction velocity 1/v on the ordinate, and the inhibitor concentration on the abscissa. The x-intercept of the linear plot is defined as minus K1 value.
1984 μl assay buffer (100 mM Tris-HCl pH 7,5, 100 mM NaCl, 10 mM CaCl2, 0,05% Brij 35) • 2 μl inhibitor dissolved in DMSO, or DMSO alone as a solvent control • 4 μl enzyme (MMP-2, MMP-9, or the catalytic domain of MMP-8) • 10 μl Mca-Pro-Leu-Gly-Leu-Dap(Dnp)-Ala-Arg-NH2 in DMSO Method • 1. Incubate buffer, enzyme, and inhibitor for 5 min at room temperature, with stirring. • 2. Start the reaction by adding 10 μl substrate in DMSO • 3. Record the increase in fluorescence intensity over 2 min. […]

[2] = molecular target: Clostridium histolyticum collagenase (EC 3.4.24.3); assay: Inhibition of Clostridium histolyticum collagenase, spectrophotometric FALGPA assay; assay type: biochemical; details: chromogenic substrate FALGPA; read-out: C. histolyticum (50% inhibition)
Source text: The activity of Clostidium histolyticum collagenase may be readily determined by a simple spectrophotometric assay using the synthetic chromogenic peptide substrate N-(3-[2-furyl]acryloyi)-leucine-glycine-proline-alanine (FALGPA; Van Hart, H. E. and Steinbrink, D. R. 1981, Anal. Biochem. 113, 356). The degree of inhibition of the degradation of this chromogenic substrate by the addition of the various test substances described in Table 1 may be easily quantified. The enzyme and substrate are commercially available.

T1 sequence (P14780 107-707 limits assumed): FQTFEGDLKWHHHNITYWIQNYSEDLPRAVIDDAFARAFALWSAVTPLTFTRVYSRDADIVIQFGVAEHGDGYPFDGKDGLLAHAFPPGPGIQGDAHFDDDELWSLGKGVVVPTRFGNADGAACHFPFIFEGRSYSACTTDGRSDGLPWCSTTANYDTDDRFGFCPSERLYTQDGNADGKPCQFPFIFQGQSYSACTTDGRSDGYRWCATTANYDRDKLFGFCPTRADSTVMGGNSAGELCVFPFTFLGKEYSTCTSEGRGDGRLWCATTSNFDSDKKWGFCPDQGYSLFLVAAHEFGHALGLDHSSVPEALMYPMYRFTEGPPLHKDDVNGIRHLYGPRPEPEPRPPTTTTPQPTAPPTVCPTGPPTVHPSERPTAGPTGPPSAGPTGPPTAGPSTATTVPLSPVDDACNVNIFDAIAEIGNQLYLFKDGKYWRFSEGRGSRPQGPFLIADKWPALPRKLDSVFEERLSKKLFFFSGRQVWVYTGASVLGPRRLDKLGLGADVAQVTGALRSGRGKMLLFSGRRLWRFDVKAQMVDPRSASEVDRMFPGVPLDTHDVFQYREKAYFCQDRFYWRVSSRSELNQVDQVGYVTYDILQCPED

| IC50 [1] [µM] | SMILES | MMP-9 (50% inhibition) [1] | IC50 [2] [µM] |
| --- | --- | --- | --- |
| 10 | CC(CCS)n1c(=O)[nH]c2ccccc2c1=O (racemic) [Example 18, (R,S)-3-[3-(1-methyl)-mercaptopropyl]-chinazolin-2,4(1H,3H)-dione] |  |  |
| 50 | Cn1c(=O)c2sccc2n(CCCS)c1=O [Example 14, 1-(3-mercaptoprop-1-yl)-3-methyl-thieno(3,2-d)-pyrimidin-2,4(1H,3H)-dione] |  |  |
| 10 | Cn1c(=O)c2sccc2n(CCS)c1=O [Example 17, 1-(2-mercaptoethyl)-3-methyl-thieno[3,2-d]-pyrimidine-2,4(1H,3H)-dione] |  |  |

Continued, compound first:

| SMILES | IC50 [1] [µM] | MMP-9 (50% inhibition) [1] | IC50 [2] [µM] |
| --- | --- | --- | --- |
| CC(S)CCn1c(=O)[nH]c(=O)c2ccccc21 (racemic) [Example 3, (R,S)-1-(3-mercaptobut-1-yl)-chinazolin-2,4(1H,3H)-dione] |  | negative | 27.5 |
| O=c1[nH]c(=O)n(CCCS)c2ccccc12 [Example 4, 1-(3-mercaptopropyl)-chinazolin-2,4(1H,3H)-dione] | 6 |  | 53.8 |
| O=c1[nH]c(=O)n(CCS)c2ccccc12 [Example 5, 1-(2-mercaptoethyl)-chinazolin-2,4(1H,3H)-dione] | 12.5 |  | 39.2 |
| Cn1c(=O)c2ccccc2n(CCCS)c1=O [Example 7, 1-(3-mercaptoprop-1-yl)-3-methyl-chinazolin-2,4(1H,3H)-dione] | 71.4 |  | 11.5 |
| O=c1[nH]c2ccccc2c(=O)n1CCCCS [Example 12, 3-(4-mercaptobut-1-yl)-chinazolin-2,4(1H,3H)-dione] | 20 |  |  |
